This is an account of results in ChEMBL document CHEMBL3817803, “Design, Synthesis, and Evaluation of Donepezil-Like Compounds as AChE and BACE-1 Inhibitors” (ACS Med Chem Lett, 2016).

In general, IC50 refers to the concentration that gives 50% inhibition. The low end stands for greater potency, the high end for weaker potency. Usually Ki stands for the dissociation constant of the complex between target and ligand, obtained from inhibition or displacement. A low value points to higher affinity.

In experiment [1] the target is T1, Acetylcholinesterase (Homo sapiens, UniProt P22303). The experiment in a line: Inhibition of human erythrocytes AchE using acetylthiocholine iodide as substrate incubated for 20 mins by Ellman method.
Experiment [2] addresses T1, Acetylcholinesterase. The experiment in a line: Non-competitive inhibition of human erythrocytes AchE using acetylthiocholine iodide as substrate incubated for 20 mins by Lineweaver-Burk plot analysis.
For experiment [3], the target named is Cholinesterase (Equus caballus) (UniProt P81908). The experiment in a line: Inhibition of horse serum BuChE using butyrylthiocoline iodide as substrate at 2 uM preincubated for 20 mins followed by 100 fold dilution by Ellman method.
Experiment [4] in a line: Selectivity ratio of IC50 for horse serum BuChE to IC50 for human erythrocytes AchE.
The target in experiment [5] is Cholinesterase (Equus caballus) (UniProt P81908). The experiment in a line: Inhibition of horse serum BuChE using butyrylthiocholine iodide as substrate at 2 uM incubated for 20 mins by Ellman method. A general note: In Ellman's method for cholinesterases, released thiocholine reacts with DTNB.
Experiment [6] is described as follows: Selectivity ratio of Ki for horse serum BuChE to Ki for human erythrocytes AchE.
Experiment [7] has as its target T2, Cholinesterase (Equus caballus, UniProt P81908). The experiment in a line: Inhibition of horse serum BuChE using butyrylthiocoline iodide as substrate incubated for 20 mins by Ellman method.
In experiment [8] the target is T2, Cholinesterase. The experiment in a line: Non-competitive inhibition of horse serum BuChE using butyrylthiocoline iodide as substrate incubated for 20 mins by Lineweaver-Burk plot analysis.
Experiment [9] deals with Beta-secretase 1 (Mus musculus) (UniProt P56818). The experiment in a line: Inhibition of mouse BACE-1 at 1 uM preincubated for 10 mins followed by fluorescent peptide substrate addition measured for 30 mins by fluorescence plate reader method.
Experiment [10] concerns the target T2, Cholinesterase. The experiment in a line: Mixed inhibition of horse serum BuChE using butyrylthiocoline iodide as substrate incubated for 20 mins by Lineweaver-Burk plot analysis.
The target of experiment [11] is Beta-secretase 1 (Mus musculus, UniProt P56818). The experiment in a line: Inhibition of mouse BACE-1 preincubated for 10 mins followed by fluorescent peptide substrate addition measured for 30 mins by fluorescence plate reader method.
Experiment [12] deals with T1, Acetylcholinesterase.
Description: Mixed inhibition of human erythrocytes AchE using acetylthiocholine iodide as substrate incubated for 20 mins by Lineweaver-Burk plot analysis

Active and inactive are the calls of the source. The calls are words filed in the database; no cut-off is given here. Some results are limits rather than exact numbers.

T1 sequence (P22303 whole entry): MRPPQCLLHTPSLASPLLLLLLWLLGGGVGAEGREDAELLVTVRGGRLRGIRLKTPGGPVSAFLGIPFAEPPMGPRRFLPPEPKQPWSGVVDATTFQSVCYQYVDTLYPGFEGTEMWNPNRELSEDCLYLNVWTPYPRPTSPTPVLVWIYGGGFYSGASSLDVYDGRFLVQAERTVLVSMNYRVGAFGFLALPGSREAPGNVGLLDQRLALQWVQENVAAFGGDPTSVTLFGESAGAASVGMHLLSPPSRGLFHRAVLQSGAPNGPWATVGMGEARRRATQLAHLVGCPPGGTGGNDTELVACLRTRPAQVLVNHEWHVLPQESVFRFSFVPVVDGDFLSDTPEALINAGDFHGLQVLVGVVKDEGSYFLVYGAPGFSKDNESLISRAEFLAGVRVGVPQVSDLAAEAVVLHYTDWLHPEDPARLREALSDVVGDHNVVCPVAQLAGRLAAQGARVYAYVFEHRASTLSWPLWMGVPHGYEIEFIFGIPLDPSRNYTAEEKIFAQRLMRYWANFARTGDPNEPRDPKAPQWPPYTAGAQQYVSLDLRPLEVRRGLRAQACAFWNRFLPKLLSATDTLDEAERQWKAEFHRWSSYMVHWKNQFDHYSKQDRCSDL
Cholinesterase (Equus caballus), sequence (P81908 whole entry): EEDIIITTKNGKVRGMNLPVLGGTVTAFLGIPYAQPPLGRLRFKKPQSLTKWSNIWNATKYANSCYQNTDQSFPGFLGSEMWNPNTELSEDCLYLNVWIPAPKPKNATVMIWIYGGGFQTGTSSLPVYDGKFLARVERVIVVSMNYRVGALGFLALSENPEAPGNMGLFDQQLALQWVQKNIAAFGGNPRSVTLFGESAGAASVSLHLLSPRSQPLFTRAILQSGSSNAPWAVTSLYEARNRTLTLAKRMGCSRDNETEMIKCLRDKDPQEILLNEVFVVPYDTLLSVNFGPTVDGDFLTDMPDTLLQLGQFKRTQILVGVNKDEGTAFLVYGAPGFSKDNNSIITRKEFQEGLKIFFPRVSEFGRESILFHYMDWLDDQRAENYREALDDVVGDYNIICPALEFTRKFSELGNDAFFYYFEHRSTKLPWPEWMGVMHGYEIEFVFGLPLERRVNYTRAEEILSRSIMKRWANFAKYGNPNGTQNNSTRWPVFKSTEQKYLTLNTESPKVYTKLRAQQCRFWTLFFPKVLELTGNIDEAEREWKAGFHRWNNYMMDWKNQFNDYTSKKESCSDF
T2 sequence (P81908 whole entry): as above
Beta-secretase 1 (Mus musculus), sequence (P56818 whole entry): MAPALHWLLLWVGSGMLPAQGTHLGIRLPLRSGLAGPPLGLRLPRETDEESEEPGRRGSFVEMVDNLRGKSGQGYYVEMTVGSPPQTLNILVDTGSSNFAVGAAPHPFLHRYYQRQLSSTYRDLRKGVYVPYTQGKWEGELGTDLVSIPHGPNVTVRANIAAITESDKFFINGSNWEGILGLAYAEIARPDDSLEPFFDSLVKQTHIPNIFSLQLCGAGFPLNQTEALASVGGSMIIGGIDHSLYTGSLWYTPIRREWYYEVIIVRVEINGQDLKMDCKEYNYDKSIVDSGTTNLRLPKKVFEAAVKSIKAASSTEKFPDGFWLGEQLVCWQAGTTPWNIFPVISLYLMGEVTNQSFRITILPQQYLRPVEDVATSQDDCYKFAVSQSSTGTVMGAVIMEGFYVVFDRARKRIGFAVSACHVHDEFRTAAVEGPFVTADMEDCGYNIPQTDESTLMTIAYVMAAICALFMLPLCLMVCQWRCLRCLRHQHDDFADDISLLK
Beta-secretase 1, sequence (P56818 whole entry): as above

With `COc1cc2c(cc1O)C(=O)/C(=C/C1CCN(Cc3ccccc3)CC1)C2`, the IC50 came to 1540 nM in [1] and 7.35 µM in experiment [7]. For the same molecule, the figures for the Ki in experiment [2] and in [8] were 2820 nM and 10.6 µM, respectively. In addition, the inhibition entry in experiment [3] is “Active”. Further, in experiment [4], the Ratio IC50 stood at 5. In experiment [5], the inhibition entry is “inactive”. For the same molecule, the Ratio Ki in [6] was 4.
Regarding `COc1cccc2c1C(=O)/C(=C/C1CCN(Cc3ccc4c(c3)OCO4)CC1)C2`, the inhibition entry in [9] and in experiment [5] was “inactive” in each case. Further, the inhibition result in experiment [3] was “Active”. In [7], this molecule came in with an IC50 of 4.82 µM. In [8], this molecule registered a Ki of 6.44 µM.
For `O=C1/C(=C/C2CCN(Cc3ccccc3)CC2)Cc2cc(O)ccc21`, the IC50 in experiment [1] is 2160 nM; in experiment [7] it was 7.59 µM; in experiment [11], < 1000 nM. The inhibition entry in [9] and in [3] was “Active” in each case. Also, the figures for the Ki in experiment [2] and in experiment [10] were 1980 nM and 8.46 µM, respectively. Besides, in experiment [4], the Ratio IC50 came to 4. Also, in experiment [5], the inhibition result is “inactive”. Moreover, in experiment [6], the Ratio Ki was determined as 4.
For `COc1cccc(CN2CCC(/C=C3\Cc4cccc(OC)c4C3=O)CC2)c1`, the concentration for half-maximal inhibition (IC50) is 12200 nM in [1] and 5.41 µM in experiment [7]. The Ki in [2] turned out to be 17200 nM; in experiment [8], 2.38 µM. In [3], the inhibition entry was “Active”. Moreover, in [4], the Ratio IC50 is < 1. For the same molecule, in [5], the inhibition entry is “inactive”. Moreover, in experiment [6], the Ratio Ki was < 1.
As to `COc1cccc(CN2CCC(/C=C3\Cc4ccc(OC)cc4C3=O)CC2)c1`, the IC50 was 34500 nM in experiment [1] and 1.62 µM in experiment [7]. Moreover, the Ki is 119000 nM in experiment [2] and 3.89 µM in experiment [8]. In addition, the inhibition entry in [3] is “Active”. Further, the Ratio IC50 in experiment [4] is < 1. Further, the inhibition result in experiment [5] was “inactive”. Besides, the Ratio Ki in experiment [6] was < 1.
As to `COc1cccc(CN2CCC(/C=C3\Cc4cc(OC)ccc4C3=O)CC2)c1`, the IC50 in [1] is 853 nM; in experiment [7] it was 2.17 µM; in [11], < 1000 nM. For the same molecule, the inhibition entry in experiment [9] and in experiment [3] was “Active” throughout. For the same molecule, the Ki stood at 554 nM in [2] and 3.49 µM in experiment [8]. For the same molecule, in experiment [4], the Ratio IC50 stood at 3. In addition, the inhibition entry in experiment [5] was “inactive”. Also, the Ratio Ki in experiment [6] turned out to be 6.
For the molecule `COc1cc2c(cc1O)C/C(=C\C1CCN(Cc3ccccc3)CC1)C2=O`, the IC50 in experiment [1] was 1540 nM; in [7], 7.35 µM. Besides, the Ki came out at 2820 nM in experiment [2] and 10.6 µM in experiment [8]. In addition, in experiment [3], the inhibition result is “Active”. In addition, the Ratio IC50 in experiment [4] is 5. The inhibition entry in experiment [5] is “inactive”. The Ratio Ki in [6] amounted to 4.
In the case of `COc1ccc2c(c1)C/C(=C\C1CCN(Cc3ccccc3)CC1)C2=O`, the results for the IC50 in experiment [1], in experiment [7] and in [11] were 43 nM, 5.73 µM and < 1000 nM, respectively. Also, the inhibition entry in [9] and in experiment [3] was “Active” in each case. Also, the Ki in experiment [2] is 29 nM; in [8], 3.14 µM. Further, the Ratio IC50 in experiment [4] was 132. The inhibition result in experiment [5] is “inactive”. Also, in experiment [6], the Ratio Ki came to 110.
For `O=C1/C(=C/C2CCN(Cc3ccccc3)CC2)Cc2ccc(O)cc21`, the figures for the IC50 in experiment [1] and in [7] were 1500 nM and 5.8 µM, respectively. Besides, the Ki in experiment [2] amounted to 4220 nM; in [8], 5.61 µM. Also, in [3], the inhibition result was “Active”. In addition, the Ratio IC50 in experiment [4] stood at 4. Further, in [5], the inhibition entry is “inactive”. In experiment [6], the Ratio Ki was found to be 1.
As to `COc1ccc2c(c1)C(=O)/C(=C/C1CCN(Cc3ccc4c(c3)OCO4)CC1)C2`, the inhibition result in experiment [9] and in experiment [5] was “inactive” in each case. Further, the inhibition result in [3] is “Active”. For the same molecule, inhibition in experiment [7] was half-maximal at 9.82 µM (IC50). The same molecule yielded a Ki in experiment [8] of 4.33 µM.
As to `COc1cccc2c1C(=O)/C(=C/C1CCN(Cc3ccccc3)CC1)C2`, the figures for the IC50 in experiment [1] and in experiment [7] were 1510 nM and 1.14 µM, respectively. Further, the results for the Ki in experiment [2] and in experiment [10] were 1830 nM and 3.1 µM, respectively. Further, the inhibition result in experiment [3] was “Active”. For the same molecule, the Ratio IC50 in experiment [4] worked out at 1. In experiment [5], the inhibition result was “inactive”. Moreover, the Ratio Ki in experiment [6] was found to be 2.
On to `O=C1/C(=C/C2CCN(Cc3ccccc3)CC2)Cc2cc3c(cc21)OCO3`, for which the IC50 in experiment [1] is 755 nM; in experiment [7], 15.1 µM; in [11], < 1000 nM. Besides, the inhibition entry in experiment [9] and in experiment [3] was “Active” throughout. The Ratio IC50 in experiment [4] amounted to 20. Also, in [5], the inhibition result is “inactive”. In addition, in [6], the Ratio Ki is 7. Also, the Ki in [8] amounted to 7.25 µM; in experiment [12], 980 nM.
Take `O=C1/C(=C/C2CCN(Cc3ccccc3)CC2)Cc2cccc(O)c21`: the IC50 in [1] was 636 nM; in experiment [7], 4.76 µM; in [11] it was < 1000 nM. Moreover, the inhibition result in experiment [9] and in experiment [3] was “Active” throughout. Moreover, the Ki was 355 nM in experiment [2] and 6.48 µM in experiment [10]. Also, the Ratio IC50 in [4] came out at 7. In addition, the inhibition entry in [5] was “inactive”. The Ratio Ki in [6] amounted to 18.
Take `COc1ccc2c(c1)C(=O)/C(=C/C1CCN(Cc3ccccc3)CC1)C2`: the IC50 in [1] was determined as 342 nM; in [7], 2.65 µM. The Ki in experiment [2] was 260 nM; in experiment [10], 1.14 µM. Also, the inhibition result in [3] is “Active”. For the same molecule, in experiment [4], the Ratio IC50 worked out at 8. For the same molecule, the inhibition entry in experiment [5] was “inactive”. Besides, in experiment [6], the Ratio Ki was determined as 4.
`COc1cc2c(cc1OC)C(=O)/C(=C/C1CCN(Cc3ccccc3)CC1)C2`: the IC50 in experiment [1] is 58 nM; in [7], 4.74 µM; in [11] it was < 1000 nM. Also, the inhibition result in experiment [9] and in experiment [3] was “Active” in each case. Besides, the Ki is 35 nM in [2] and 2.44 µM in experiment [10]. In addition, the Ratio IC50 in experiment [4] is 81. Besides, in [5], the inhibition result is “inactive”. In addition, in experiment [6], the Ratio Ki turned out to be 71.
